Reference: ChEMBL document CHEMBL1201862, “PubChem BioAssay data set” (2004)
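Values below derive from 48-hour exposures of cells grown in 96-well plates, with endpoints linearly interpolated between the two concentrations bracketing the appropriate inhibition level. The concentration for 50% growth inhibition is given as GI50.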 Calls of active or inactive are those of the source. No stated cut-off is given here; in the data, active = GI50 up to about 1.1 µM and inactive = higher.

Legend:
Experiment in all cases: DTP human tumour cell line panel, 48 h
[1] = tested on: NCI-H460
[2] = tested on: SF-295
[3] = tested on: A498
[4] = tested on: SK-MEL-28
[5] = tested on: IGROV-1
[6] = tested on: OVCAR-4
[7] = tested on: TK-10
[8] = tested on: KM12
[9] = tested on: NCI-H522
[10] = tested on: RXF 393
[11] = tested on: NCI-H226
[12] = tested on: MCF7
[13] = tested on: HCC 2998
[14] = tested on: DU-145
[15] = tested on: SNB-75
[16] = tested on: HOP-62
[17] = tested on: SR
[18] = tested on: BT-549
[19] = tested on: UACC-62
[20] = tested on: ACHN
[21] = tested on: U-251
[22] = tested on: LOX IMVI
[23] = tested on: M14
[24] = tested on: SF-268
[25] = tested on: MDA-MB-435
[26] = tested on: 786-0
[27] = tested on: SN12C
[28] = tested on: SK-MEL-5
[29] = tested on: HL-60
[30] = tested on: SNB-19
[31] = tested on: MDA-N
[32] = tested on: PC-3
[33] = tested on: MDA-MB-231
[34] = tested on: RPMI-8226
[35] = tested on: HCT-15
[36] = tested on: HCT-116
[37] = tested on: SF-539
[38] = tested on: SK-OV-3
[39] = tested on: EKVX
[40] = tested on: CCRF-CEM
[41] = tested on: T47D
[42] = tested on: HOP-92
[43] = tested on: UACC-257
[44] = tested on: NCI/ADR-RES
[45] = tested on: OVCAR-8
[46] = tested on: Malme-3M
[47] = tested on: SK-MEL-2
[48] = tested on: NCI-H23
[49] = tested on: CAKI-1
[50] = tested on: MOLT-4
[51] = tested on: COLO 205
[52] = tested on: HT-29
[53] = tested on: OVCAR-3
[54] = tested on: K562
[55] = tested on: OVCAR-5
[56] = tested on: SW-620
[57] = tested on: A549
[58] = tested on: UO-31
[59] = tested on: Hs-578T

COc1ccc(/N=N/C(=O)NC(CC(C)C)C(=O)NCC(=O)O)cc1 (centres undefined)
GI50 [1]: 6.65 µM (inactive) | GI50 [2]: 5.53 µM (inactive) | GI50 [3]: > 100 µM (inactive) | GI50 [4]: 57.7 µM (inactive) | GI50 [5]: 6.27 µM (inactive) | GI50 [6]: > 51.5 µM (inactive) | GI50 [7]: 25.3 µM (inactive) | GI50 [8]: 3.76 µM (inactive) | GI50 [9]: 22.5 µM (inactive) | GI50 [10]: > 100 µM (inactive) | GI50 [11]: > 41 µM (inactive) | GI50 [12]: 13.2 µM (inactive) | GI50 [13]: 8.97 µM (inactive) | GI50 [14]: 12.2 µM (inactive) | GI50 [15]: 89.5 µM (inactive) | GI50 [16]: 41.6 µM (inactive) | GI50 [17]: 19.5 µM (inactive) | GI50 [18]: > 38.7 µM (inactive) | GI50 [19]: 1.61 µM (inactive) | GI50 [20]: 1.54 µM (inactive) | GI50 [21]: > 100 µM (inactive) | GI50 [22]: 1.37 µM (inactive) | GI50 [23]: 2.94 µM (inactive) | GI50 [24]: > 43.8 µM (inactive) | GI50 [25]: 1.5 µM (inactive) | GI50 [26]: > 100 µM (inactive) | GI50 [27]: > 46.8 µM (inactive) | GI50 [28]: 3.79 µM (inactive) | GI50 [29]: 5.9 µM (inactive) | GI50 [30]: > 92.5 µM (inactive) | GI50 [31]: 26.6 µM (inactive) | GI50 [32]: 4.17 µM (inactive) | GI50 [33]: > 58.2 µM (inactive) | GI50 [34]: 11.7 µM (inactive) | GI50 [35]: 1.46 µM | GI50 [36]: 12.5 µM (inactive) | GI50 [37]: 4.18 µM (inactive) | GI50 [38]: > 100 µM (inactive) | GI50 [39]: 43.4 µM (inactive) | GI50 [40]: 9.31 µM (inactive) | GI50 [41]: 3.03 µM (inactive) | GI50 [42]: > 100 µM (inactive) | GI50 [43]: 32.8 µM (inactive) | GI50 [44]: 19.5 µM (inactive) | GI50 [45]: 21.3 µM (inactive) | GI50 [46]: 19.7 µM (inactive) | GI50 [47]: > 18.4 µM (inactive) | GI50 [48]: 57.3 µM (inactive) | GI50 [49]: > 100 µM (inactive) | GI50 [50]: 1.83 µM (inactive) | GI50 [51]: 4.47 µM (inactive) | GI50 [52]: 14.8 µM (inactive) | GI50 [53]: 19.8 µM (inactive) | GI50 [54]: 0.451 µM (active) | GI50 [55]: 13.5 µM (inactive) | GI50 [56]: 12.8 µM (inactive) | GI50 [57]: 3.29 µM (inactive) | GI50 [58]: 1.04 µM (active) | GI50 [59]: 89.3 µM (inactive)
